# Legend:
# elastin = experiment: Elastin synthesis in human dermal fibroblasts (Fastin Elastin Assay); format: cell-based; conditions: 0.01 μg/ml, 48 hours, vs negative control
# Procedure: Stimulation of elastin synthesis induced by Ac-L-Asp-L-Val-L-Lys-L-Tyr-OH was evaluated by means of a quantitative method of staining, Fastin Elastin Assay (Tebu-Bio). Human dermal fibroblasts were trypsinized and seeded at a density of 7×10^4 cells/well in 6-well plates. After 72 hours of incubation at 37° C., 5% CO2, with a humidified atmosphere, a new medium was added with 0.01 μg/mL Ac-L-Asp-L-Val-L-Lys-L-Tyr-OH. Untreated cells were used as negative controls and cells treated with TGF-1β (Peprotech) were used as positive controls. The cells were incubated for an additional 48 hours at 37° C., 5% CO2, with humidified atmosphere. Subsequently, the elastin was solubilized and extracted, for which the cells were washed twice with PBS (Sigma) and a solution was added to uncouple the cells (Cell Dissociation Solution, Sigma). The suspension of cells was transferred to centrifuge tubes, 1 M Oxalic Acid was added provided by the kit and they were incubated at 100° C. for 1 hour. Once the elastin became soluble, a calibration curve was prepared with the elastin provided with the kit. From that point, the samples and dilutions of the calibration curve were processed following the kit instructions to isolate and stain the elastin. Lastly, the dye was extracted and the absorbency reading was carried out at a wave length of 540 nm in a TECAN GENios spectrophotometric reader.
# [1] = system: human dermal fibroblasts (HDFa); experiment: Gene expression profile of human dermal fibroblasts (microarray, GSEA); format: cell-based; conditions: 0.05 mg/ml, 24 hours
# Procedure: Adult human dermal fibroblasts (HDFa) were seeded (12.5×10^4 cells/vial T25 cm^2), and were incubated in complete medium 106 for 7 days at 37° C. in an atmosphere with 5% CO2. After the incubation, the cells were treated for 24 hours at 37° C. in an atmosphere with 5% CO2 with 0.05 mg/ml of the compound Ac-L-Asp-L-Val-L-Lys-L-Tyr-OH in complete medium 106 or in complete medium 106 as a negative control. The incubations and the treatments were carried out in duplicate for each condition.
# After the treatments, RNA was extracted and purified, the quality and quantity was verified and the marking was carried out as was the hybridization of the samples in a human gene expression microarray (ASurePrint G3, Agilent). […] Next an evaluation of the genes by means of GSEA was carried out to encompass these genes according to their function/biological route. 24 hours after the treatments, the cells were lysed and the RNA was extracted and purified from each replica and each condition by means of the RNeasyPlus Mini kit by Qiagen. The lysed cells were briefly homogenized and the RNases were inactivated. The samples were passed through special RNA binding columns and after several microcentrifugation washes to eliminate contaminants and impurities, the purified RNA was eluted with 50 μl of ultrapure water. The purity, integrity and concentration of the RNA obtained were evaluated by means of spectrophotometry (Nanodrop) and with a bioanalyzer (Agilent Bioanalyzer).
# The normalized values obtained with the treatment were compared with the normalized values obtained with the negative control to obtain genes with differential expression. […] The values obtained are also evaluated by means of GSEA (Gene Set Analysis Enrichment) to group together the genes with differential expression in terms of Gene Ontology and Biological Routes and the sets of genes with an expected proportion of incorrectly rejected null hypotheses were selected as significant (FDR) <25%. The results obtained are shown below in three different tables in which different families of genes are grouped together (collagen genes, genes involved in collagen synthesis and genes involved in cell adhesion).
substance,measurement,setting,value
Ac-L-Asp-L-Val-L-Lys-L-Tyr-OH (Ac-DVKY-OH),INCREASE IN ELASTIN SYNTHESIS,elastin,21.7%
same,% Expression induction,"[1]; ACTN1 (Actinin, alpha 1)",27.4%
same,% Expression induction,"[1]; CAPNS1 (Calpain, small subunit 1)",22.1%
same,% Expression induction,"[1]; CAPNS2 (Calpain, small subunit 2)",17.9%
same,% Expression induction,"[1]; COL1A2 (Collagen, type-I, alpha 2)",31.1%
same,% Expression induction,"[1]; COL4A1 (Collagen, type-IV, alpha 1)",18.9%
same,% Expression induction,"[1]; COL4A2 (Collagen, type-IV, alpha 2)",8.3%
same,% Expression induction,"[1]; COL6A2 (Collagen, type-VI, alpha 2)",16.0%
same,% Expression induction,"[1]; COL6A3 (Collagen, type-VI, alpha 3)",18.6%
same,% Expression induction,"[1]; COL11A1 (Collagen, type-XI, alpha 1)",7.2%
same,% Expression induction,"[1]; COL14A1 (Collagen, type-XIV, alpha 1)",36.1%
same,% Expression induction,"[1]; COL22A1 (Collagen, type-XXII, alpha 1)",7.7%
same,% Expression induction,"[1]; COL27A1 (Collagen, type-XXVII, alpha 1)",14.2%
same,% Expression induction,[1]; GSN (Gelsolin),30.1%
same,% Expression induction,"[1]; ITGB1 (Integrin, beta 1)",33.0%
same,% Expression induction,[1]; PCOLCE (Procollagen C-endopeptidase enhancer),22.4%
same,% Expression induction,[1]; PFN1 (Profilin 1),36.8%
same,% Expression induction,"[1]; PLOD3 (Procollagen-lysine, 2-oxoglutarate 5-dioxygenase 3)",20.7%
same,% Expression induction,"[1]; ROCK1 (Rho-associated, coiled-coil containing protein kinase 1)",22.7%
same,% Expression induction,[1]; SERPINH1 (heat shock protein 47),25.3%
same,% Expression induction,[1]; TLN1 (Talin 1),27.5%
same,% Expression induction,[1]; VCL (Vinculin),4.2%
same,% Expression induction,[1]; ZYX (Zyxin),35.7%

# — US9458194B2, “Compounds useful in the treatment and/or care of the skin and their cosmetic or pharmaceutical compositions” (Lubrizol Advanced Materials, Inc., priority 2013, dated 2016)
